Measurements taken from patent US11453697B1, “Cyclic di-nucleotide compounds as sting agonists” (Merck Sharp & Dohme Corp., priority 2015, dated 2022).
Like-named read-outs stand apart in the source and are kept apart here.

How the values were obtained:
full-length HAQ STING = full-length HAQ STING (Homo sapiens (Human), UniProt Q86WV6, G230A/H232R/R293Q/R71H); assay: 3H-cGAMP filtration binding assay (HAQ STING); conditions: competition with tritiated cGAMP, HAQ STING membrane
Excerpt: The ability of compounds to bind STING is quantified by the ability to compete with tritiated cGAMP ligand for human STING receptor membrane using a radioactive filter-binding assay. The binding assay employs STING receptor obtained from Hi-Five cell membranes overexpressing full-length HAQ STING prepared in-house and tritiated cGAMP ligand also purified in-house.
The ability of compounds to bind STING is quantified by their ability to compete with tritiated cGAMP ligand for human STING receptor membrane using a radioactive filter-binding assay.
The basic HAQ STING filtration assay protocol is as follows:
Compound and membrane then preincubated for 60 min at RT to allow compound binding to equilibrate. Following equilibration, 8 nM of [^3H] c-GAMP ligand was prepared by diluting into assay buffer, and 50 uL of this working stock was then manually added to each well of the assay plate. […] The filter plates were then dried at 55° C. for 30 min using a pressurized VWR oven before 30 uL of Ultima GoldF scintillate was added to each well. Tritium levels for each reaction well were then measured using a PerkinElmer TopCount plate reader.
After normalization to controls, the percent activity for each compound concentration was calculated by measuring the amount of remaining radioactivity. The plot of percent activity versus the log of compound concentration was fit with a 4-parameter dose response equation to calculate EC50 values.

[1] = test system: IFN-β secretion in THP1 cells; assay: IFN-β secretion in THP1 cell culture (5 h); format: cell-based, human
Procedure, shortened: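 THP1 cells incubated with compound for 5 h at 37 °C, 5% CO2, and secreted IFN-β in supernatant quantified by AlphaLISA. Percent effect normalised to 30 uM cGAMP positive control and 0.3% DMSO. EC50 from 4-parameter fit.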

[2] = read-out: EC50 (nM), 3H-cGAMP filtration binding assay for HAQ STING
[3] = IFN-β secretion in THP1 cell culture, 5 h, compound at 30 μM, percent activation relative to 2′3′-cGAMP
[4] = EC50 (nM), 3H-cGAMP filtration binding assay for HAQ STING

full-length HAQ STING, sequence (Q86WV6 other isoform, or with tags, fused parts or gaps, stated change not applied): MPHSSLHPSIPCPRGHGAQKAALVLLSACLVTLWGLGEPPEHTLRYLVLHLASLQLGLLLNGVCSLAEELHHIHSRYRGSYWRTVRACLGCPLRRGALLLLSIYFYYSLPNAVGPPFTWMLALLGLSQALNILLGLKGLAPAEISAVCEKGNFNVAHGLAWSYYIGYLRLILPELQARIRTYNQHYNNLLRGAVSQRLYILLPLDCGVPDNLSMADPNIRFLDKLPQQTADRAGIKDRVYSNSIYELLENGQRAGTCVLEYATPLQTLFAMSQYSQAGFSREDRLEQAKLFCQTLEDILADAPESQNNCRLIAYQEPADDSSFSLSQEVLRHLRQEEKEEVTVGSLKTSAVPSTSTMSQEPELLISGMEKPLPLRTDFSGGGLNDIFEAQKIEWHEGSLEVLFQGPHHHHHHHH

EC50 (full-length HAQ STING; [2]) [nM] | SMILES | % Effect at 30 μM relative to 2′3′-cGAMP [1, 3] [%] | % Effect at 30 μM relative to 2′3′-cGAMP [1] [%] | EC50 (full-length HAQ STING; [4]) [nM]
834 | Nc1nc2c(ncn2[C@@H]2O[C@@H]3COP(=O)(O)O[C@H]4[C@@H](O)[C@H](n5nnc6c(N)nccc65)O[C@@H]4COP(=O)(O)O[C@@H]2[C@@H]3O)c(=O)[nH]1 [Example 73, 2-amino-9-[(5R,7R,8R,12aR,14R,15R,15aS,16R)-14-(4-amino-1H-[1,2,3]triazolo[4,5-c]pyridin-1-yl)-2,10,15,16-tetrahydroxy-2,10-dioxidooctahydro-12H-5,8-methanofuro[3,2-l][1,3,6,9,11,2,10]pentaoxadiphosphacyclotetradecin-7-yl]-1,9-dihydro-6H-purin-6-one] | 5 |  | 
8.2 | Nc1nc2c(ncn2[C@@H]2O[C@@H]3COP(=O)(O)O[C@H]4C[C@H](n5cnc6c(=O)[nH]cnc65)O[C@@H]4COP(=O)(O)O[C@@H]2[C@@H]3F)c(=O)[nH]1 [Example 332, 2-amino-9-[(5R,7R,8S,12aR,14R,15aS,16R)-16-fluoro-2,10-dihydroxy-2,10-dioxido-14-(6-oxo-1,6-dihydro-9H-purin-9-yl)octahydro-12H-5,8-methanofuro[3,2-l][1,3,6,9,11,2,10]pentaoxadiphosphacy-clotetradecin-7-yl]-1,9-dihydro-6H-purin-6-one] | 113 |  | 
42.5 | N#Cc1cn([C@@H]2O[C@@H]3COP(=O)(O)O[C@@H]4[C@H](O)[C@@H](COP(=O)(O)O[C@H]3[C@H]2O)O[C@H]4n2cnc3c(=O)[nH]c(N)nc32)c2ncnc(N)c12 [Example 60, 4-amino-7-[(5R,7R,8R,12aR,14R,15R,15aS,16R)-7-(2-amino-6-oxo-1,6-dihydro-9H-purin-9-yl)-2,10,15,16-tetrahydroxy-2,10-dioxidooctahydro-12H-5,8-methanofuro[3,2-l][1,3,6,9,11,2,10]pentaoxadiphosphacyclotetradecin-14-yl]-7H-pyrrolo[2,3-d]pyrimidine-5-carbonitrile] | 12 |  | 
6.6 | Nc1nc2c(ncn2[C@@H]2O[C@@H]3COP(=O)(O)O[C@H]4[C@@H](F)[C@H](n5cnc6c(=O)[nH]cnc65)O[C@@H]4COP(=O)(O)O[C@@H]2C3)c(=O)[nH]1 [Example 294, 2-amino-9-[(5S,7R,8R,12aR,14R,15R,15aR)-15-fluoro-2,10-dihydroxy-2,10-dioxido-14-(6-oxo-1,6-dihydro-9H-purin-9-yl)octahydro-12H-5,8-methanofuro[3,2-l] [1,3,6,9,11,2,10]pentaoxadiphosphacyclo-tetradecin-7-yl]-1,9-dihydro-6H-purin-6-one] | 84 |  | 
2.7 | Nc1ncnc2c1ncn2[C@@H]1O[C@@H]2COP(=O)(O)O[C@@H]3C[C@@H](COP(=O)(O)O[C@H]2[C@H]1O)O[C@H]3n1cnc2c(=O)[nH]cnc21 [Example 50, 9-[(5S,7R,8R,12aR,14R,15R,15aS)-14-(6-amino-9H-purin-9-yl)-2,10,15-trihydroxy-2,10-dioxidooctahydro-12H-5,8-methanofuro[3,2-l][1,3,6,9,11,2,10]pentaoxadiphosphacyclotetradecin-7-yl]-1,9-dihydro-6H-purin-6-one] | 85 |  | 
1.7 | Nc1nc2c(ncn2[C@@H]2O[C@@H]3COP(=O)(O)O[C@H]4[C@@H](O)[C@H](n5cnc6c(N)ncnc65)O[C@@H]4COP(=O)(O)O[C@@H]2[C@@H]3O)c(=S)[nH]1 [Example 53, 2-amino-9-[(5R,7R,8R,12aR,14R,15R,15aS,16R)-14-(6-amino-9H-purin-9-yl)-2,10,15,16-tetrahydroxy-2,10-dioxidooctahydro-12H-5,8-methanofuro[3,2-l][1,3,6,9,11,2,10]pentaoxadiphosphacyclotetradecin-7-yl]-1,9-dihydro-6H-purine-6-thione] | 127 |  | 
3.2 | Nc1nc2c(ncn2[C@@H]2O[C@@H]3COP(=O)(O)O[C@H]4[C@@H](O)[C@H](c5cnc6c(N)ncnn56)O[C@@H]4COP(=O)(O)O[C@@H]2[C@@H]3O)c(=O)[nH]1 [Example 40, 2-amino-9-[(5R,7R,8R,12aR,14S,15S,15aS,16R)-14-(4-aminoimidazo[2,1-f][1,2,4]triazin-7-yl)-2,10,15,16-tetrahydroxy-2,10-dioxidooctahydro-12H-5,8-methanofuro[3,2-l][1,3,6,9,11,2,10]pentaoxadiphosphacyclotetradecin-7-yl]-1,9-dihydro-6H-purin-6-one] | 77 |  | 
3.1 | Nc1ncnc2c1ncn2[C@@H]1O[C@@H]2COP(=O)(O)O[C@@H]3[C@H](O)[C@@H](COP(=O)(O)O[C@H]2[C@H]1O)O[C@H]3n1cnc2c(=O)[nH]ccc21 [Example 58, 1-[(5R,7R,8R,12aR,14R,15R,15aS,16R)-14-(6-amino-9H-purin-9-yl)-2,10,15,16-tetrahydroxy-2,10-dioxidooctahydro-12H-5,8-methanofuro[3,2-l][1,3,6,9,11,2,10]pentaoxadiphosphacyclotetradecin-7-yl]-1,5-dihydro-4H-imidazo[4,5-c]pyridin-4-one] | 92 |  | 
 | Nc1nc2c(ncn2[C@@H]2O[C@@H]3COP(O)(=S)O[C@H]4C[C@H](n5cnc6c(=O)[nH]cnc65)O[C@@H]4COP(O)(=S)O[C@@H]2[C@@H]3F)c(=O)[nH]1 (single isomer, unassigned) [Example 305] |  | 50 | 326
2.3 | [N-]=[N+]=N[C@H]1[C@H]2OP(=O)(O)OC[C@H]3O[C@@H](n4cnc5c(O)ncnc54)[C@H](O)[C@@H]3OP(=O)(O)OC[C@H]1O[C@H]2n1cnc2c(=O)[nH]c(N)nc21 [Example 302, 2-amino-9-[(5S,7R,8R,12aR,14R,15R,15aS,16R)-16-azido-2,10,15-trihydroxy-14-(6-hydroxy-9H-purin-9-yl)-2,10-dioxidooctahydro-12H-5,8-methanofuro[3,2-l] [1,3,6,9,11,2,10]pentaoxadiphosphacyclo-tetradecin-7-yl]-1,9-dihydro-6H-purin-6-one] | 103 |  | 
21.5 | NC[C@H]1[C@H]2OP(=O)(O)OC[C@H]3O[C@@H](n4cnc5c(N)ncnc54)[C@H](O)[C@@H]3OP(=O)(O)OC[C@H]1O[C@H]2n1cnc2c(=O)[nH]c(N)nc21 [Example 36, 2-amino-9-[(5S,7R,8R,12aR,14R,15R,15aS,16R)-16-(aminomethyl)-14-(6-amino-9H-purin-9-yl)-2,10,15-trihydroxy-2,10-dioxidooctahydro-12H-5,8-methanofuro[3,2-l][1,3,6,9,11,2,10]pentaoxadiphosphacyclotetradecin-7-yl]-1,9-dihydro-6H-purin-6-one] | 120 |  | 
121 | Nc1nc2c(ncn2[C@@H]2O[C@@]34COC3[C@@H]2OP(=O)(O)OC[C@H]2O[C@@H](n3cnc5c(N)ncnc53)[C@@H](O)C2OP(=O)(O)OC4)c(=O)[nH]1 (stereo partly drawn) [Example 17, 2-amino-9-[(2aR,5S,6aS,7R,8R,9aR,12S,14R,14aS,15R)-8-(6-amino-9H-purin-9-yl)-5,7,12-trihydroxy-5,12-dioxidohexahydro-6aH-2a,14-(epoxymethano)furo[3,2-d]oxeto[2,3-k][1,3,7,9,2,8]tetraoxadiphosphacyclotridecin-15(2H,3H)-yl]-1,9-dihydro-6H-purin-6-one] | 81 |  | 
11.9 | Nc1nc2c(ncn2[C@@H]2O[C@@H]3COP(=O)(O)O[C@H]4[C@@H](O)[C@H](n5cc(F)c6c(N)ncnc65)O[C@@H]4COP(=O)(O)O[C@@H]2[C@@H]3O)c(=O)[nH]1 [Example 33, 2-amino-9-[(5R,7R,8R,12aR,14R,15R,15aS,16R)-14-(4-amino-5-fluoro-7H-pyrrolo[2,3-d]pyrimidin-7-yl)-2,10,15,16-tetrahydroxy-2,10-dioxidooctahydro-12H-5,8-methanofuro[3,2-l][1,3,6,9,11,2,10]pentaoxadiphosphacyclotetradecin-7-yl]-1,9-dihydro-6H-purin-6-one] | 200 |  | 
 | Nc1nc2c(ncn2[C@@H]2O[C@@H]3CO[P@@](=O)(S)O[C@H]4C[C@H](n5cnc6c(=O)[nH]cnc65)O[C@@H]4CO[P@@](=O)(S)O[C@@H]2[C@@H]3F)c(=O)[nH]1 (single isomer, unassigned) [Example 307] |  | 174 | < 1

SMILES | EC50 (full-length HAQ STING; [2]) [nM] | % Effect at 30 μM relative to 2′3′-cGAMP [1, 3] [%] | % Effect at 30 μM relative to 2′3′-cGAMP [1] [%] | EC50 (full-length HAQ STING; [4]) [nM]
Nc1nc2c(ncn2[C@@H]2O[C@@H]3COP(O)(=S)O[C@H]4[C@H](F)[C@H](n5cnc6c(=O)[nH]cnc65)O[C@@H]4COP(=O)(O)O[C@@H]2[C@@H]3F)c(=O)[nH]1 (stereo partly drawn) [Example 303, 2-amino-9-[(5R,7R,8S,12aR,14R,15S,15aR,16R)-15,16-difluoro-2,10-dihydroxy-10-oxido-14-(6-oxo-1,6-dihydro-9H-purin-9-yl)-2-sulfidooctahydro-12H-5,8-methanofuro[3,2-l][1,3,6,9,11,2,10]pentaoxadiphosphacyclotetradecin-7-yl]-1,9-dihydro-6H-purin-6-one] | < 1 |  | 106 | 
